Like-named read-outs stand apart in the source and are kept apart here.
Experiments:
purified PARP protein = purified PARP protein (Homo sapiens, UniProt P09874); assay: PARP enzyme inhibition assay; type: biochemical; details: 20 nM purified PARP (5 nM for tight-binding inhibitors), 500 μM NAD+, 25° C., several values in one cell = repeat determinations
[1] = read-out: Inhibition Constant Ki

Chain of purified PARP protein (P09874 whole entry): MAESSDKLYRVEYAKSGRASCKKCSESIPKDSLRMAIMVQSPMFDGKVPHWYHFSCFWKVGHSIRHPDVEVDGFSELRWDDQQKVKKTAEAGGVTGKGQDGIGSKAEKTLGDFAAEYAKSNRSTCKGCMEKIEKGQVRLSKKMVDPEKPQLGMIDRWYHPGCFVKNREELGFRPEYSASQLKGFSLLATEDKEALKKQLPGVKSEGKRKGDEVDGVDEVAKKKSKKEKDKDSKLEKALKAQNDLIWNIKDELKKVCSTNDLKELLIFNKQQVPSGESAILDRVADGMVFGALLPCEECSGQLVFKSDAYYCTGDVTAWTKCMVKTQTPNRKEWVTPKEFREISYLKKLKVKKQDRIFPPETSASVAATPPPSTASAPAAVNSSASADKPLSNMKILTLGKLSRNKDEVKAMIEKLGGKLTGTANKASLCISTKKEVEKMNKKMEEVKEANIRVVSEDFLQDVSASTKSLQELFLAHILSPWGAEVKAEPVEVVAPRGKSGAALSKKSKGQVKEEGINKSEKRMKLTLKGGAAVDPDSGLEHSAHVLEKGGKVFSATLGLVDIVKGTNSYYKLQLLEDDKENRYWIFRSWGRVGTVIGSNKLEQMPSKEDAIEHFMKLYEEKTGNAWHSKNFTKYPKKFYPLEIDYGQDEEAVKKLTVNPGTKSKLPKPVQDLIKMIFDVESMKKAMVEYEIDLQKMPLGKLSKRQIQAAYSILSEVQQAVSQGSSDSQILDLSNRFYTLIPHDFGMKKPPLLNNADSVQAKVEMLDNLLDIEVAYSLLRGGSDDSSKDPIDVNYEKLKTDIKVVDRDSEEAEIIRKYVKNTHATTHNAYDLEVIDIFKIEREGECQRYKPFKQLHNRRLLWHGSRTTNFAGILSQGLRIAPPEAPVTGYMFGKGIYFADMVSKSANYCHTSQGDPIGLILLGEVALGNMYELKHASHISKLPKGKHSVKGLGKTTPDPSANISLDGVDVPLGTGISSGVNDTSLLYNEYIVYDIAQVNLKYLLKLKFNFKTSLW

melting point | Ki (purified PARP protein; [1]) [nM] | SMILES | Ki (purified PARP protein; Inhibition Constant Ki (nM)) [nM]
271 to 276 °C | 4.3 | O=C1NCCn2c(-c3nccs3)nc3cccc1c32 [Example 94, 1-(Thiazol-2-yl)-8,9-dihydro-7H-2,7,9a-triaza-benzo[cd]azulen-6-one] | –
327 to 332 °C (dec.) | 6.2 | O=C1NCCn2c(-c3ccc[nH]3)nc3cccc1c32 [Example 95, 1-(1H-Pyrrol-2-yl)-8,9-dihydro-7H-2,7,9a-triaza-benzo[cd]azulen-6-one] | –
198 to 202 °C (dec.) | 5.6 | N#CCNCc1ccc(-c2nc3cccc4c3n2CCNC4=O)cc1 [Example 102, [4-(6-Oxo-6,7,8,9-tetrahydro-2,7,9a-triaza-benzo[cd]azulen-1-yl)-benzylamino]-acetonitrile] | –
126 °C (dec.) | 4.5 | C#CCNCc1ccc(-c2nc3cccc4c3n2CCNC4=O)cc1 [Example 104, 1-(4-Prop-2-ynylaminomethyl-phenyl)-8,9-dihydro-7H-2,7,9a-triaza-benzo[cd]azulen-6-one] | –
247 to 250 °C | 18 | O=C1NCCn2c(C(=O)NCc3ccccc3)nc3cccc1c32 [Example 110, 6-Oxo-6,7,8,9-tetrahydro-2,7,9a-triaza-benzo[cd]azulen-1-carboxylic Acid Benzylamide] | –
277 to 281 °C (dec.) | 18 | O=C1NCCn2c(C(F)(F)F)nc3cccc1c32 [Example 112, 1-Trifluoromethyl-8,9-dihydro-7H-2,7,9a-triaza-benzo[cd]azulen-6-one] | –
> 280 °C (dec.) | 4.4 | O=C1NCCn2c(-c3ccc(Cl)nc3)nc3cccc1c32 [Example 118, 1-(6-Chloro-pyridin-3-yl)-8,9-dihydro-7H-2,7,9a-triaza-benzo[cd]azulen-6-one] | –
253 to 254 °C (dec.) | 7.3 | O=C1NCCn2c(-c3ccc(OCCO)cc3)nc3cccc1c32 [Example 120, 1-[4-(2-Hydroxy-ethoxy)-phenyl]-8,9-dihydro-7H-2,7,9a-triaza-benzo[cd]azulen-6-one] | –
184 to 186 °C | 8 | CN(C)CCOc1ccc(-c2nc3cccc4c3n2CCNC4=O)cc1 [Example 124, 1-[4-(2-Dimethylamino-ethoxy)-phenyl]-8,9-dihydro-7H-2,7,9a-triaza-benzo[cd]azulen-6-one] | –

The remaining lines, values behind:

SMILES | melting point | Ki (purified PARP protein; [1]) [nM] | Ki (purified PARP protein; Inhibition Constant Ki (nM)) [nM]
CC(=O)c1c(-c2ccc(F)cc2)n2c3c(cccc13)C(=O)NCC2 [Example 93, 7-Acetyl-6-(4-fluoro-phenyl)-3,4-dihydro-2H-[1,4]diazepino[6,7,1-hi]indol-1-one] | 275 to 276 °C | – | 306
O=C1NCCn2c(-c3ccc(CO)cc3)nc3cc(F)cc1c32 [Example 97, 4-Fluoro-1-(hydroxymethyl-phenyl)-8,9-dihydro-7H-2,7,9a-triaza-benzo[cd]azulen-6-one] | 273 to 275 °C | 1.6 | –
CCOCCNCc1ccc(-c2nc3cccc4c3n2CCNC4=O)cc1 [Example 100, 1-{4-[(2-Ethoxyethylamino)-methyl]-phenyl}-8,9-dihydro-7H-2,7,9a-triaza-benzo[cd]azulen-6-one] | 138 to 140 °C | 2.7 | –
O=C1NCCn2c(-c3ccc(CNCC(F)(F)F)cc3)nc3cccc1c32 [Example 103, 1-4-[(2,2,2-Trifluoro-ethylamino)-methyl]-phenyl-8,9-dihydro-7H-2,7,9a-triaza-benzo[cd]azulen-6-one] | 221 to 223 °C | 6.2 | –
O=C1NCCn2c(-c3ccc(CN4CCSCC4)cc3)nc3cccc1c32 [Example 105, 1-(4-Thiomorpholin-4-ylmethyl-phenyl)-8,9-dihydro-7H-2,7,9a-triaza-benzo[cd]azulen-6-one] | 266 °C (dec.) | 6.2 | –
Cc1ccc(-c2nc(-c3nc4cccc5c4n3CCNC5=O)cs2)cc1 [Example 106, 1-(2-p-Tolyl-thiazol-4-yl)-8,9-dihydro-7H-2,7,9a-triaza-benzo[cd]azulen-6-one] | 308 to 313 °C | 8 | –
Cc1ccc(-c2onc3ccc(-c4nc5cccc6c5n4CCNC6=O)cc23)cc1 [Example 107, 1-(3-p-Tolyl-benzo[c]isoxazol-5-yl)-8,9-dihydro-7H-2,7,9a-triaza-benzo[cd]azulen-6-one] | 297 to 301 °C (dec.) | 25 | –
O=C1NCCn2c(-c3ccc(Sc4ccc(Cl)cc4)nc3)nc3cccc1c32 [Example 108, 1-[6-(4-Chloro-phenylsulfanyl)-pyridin-3-yl]-8,9-dihydro-7H-2,7,9a-triaza-benzo[cd]azulen-6-one] | 280 to 284 °C (dec.) | 6 | –
N#Cc1ccc(Oc2ccc(-c3nc4cccc5c4n3CCNC5=O)cn2)cc1 [Example 109, 4-[5-(6-Oxo-6,7,8,9-tetrahydro-2,7,9a-triaza-benzo[cd]azulen-1-yl)-pyridin-2-yloxy]-benzonitrile] | 281 to 288 °C (dec.) | 5.5 | –
N#CCCNCc1ccc(-c2nc3cccc4c3n2CCNC4=O)cc1 [Example 111, 3-[4-(6-Oxo-6,7,8,9-tetrahydro-2,7,9a-triaza-benzo[cd]azulen-1-yl)-benzylamino]-propionitrile] | 208 to 214 °C | 5.1 | –
O=C1NCCn2c(C(=O)N3CCOCC3)nc3cccc1c32 [Example 113, 1-(Mompholine-4-carbonyl)-8,9-dihydro-7H-2,7,9a-triaza-benzo[cd]azulen-6-one] | 271 to 274 °C (dec.) | 24 | –
O=C1NCCn2c(-c3ccc(=O)n(Cc4ccccc4)c3)nc3cccc1c32 [Example 114, 1-(1-Benzyl-6-oxo-1,6-dihydro-pyridin-3-yl)-8,9-dihydro-7H-2,7,9a-triaza-benzo[cd]azulen-6-one] | 265 to 269 °C (dec.) | 9.9 | –
CN1CCN(C(=O)c2nc3cccc4c3n2CCNC4=O)CC1 [Example 115, 1-(4-Methyl-piperazine-1-carbonyl)-8,9-dihydro-7H-2,7,9a-triaza-benzo[cd]azulen-6-one] | 311 to 316 °C (dec.) | 116 | –
NC(=O)c1ccc(Oc2ccc(-c3nc4cccc5c4n3CCNC5=O)cn2)cc1 [Example 116, 4-[5-(6-Oxo-6,7,8,9-tetrahydro-2,7,9a-triaza-benzo[cd]azulen-1-yl)-pyridin-2-yloxy]-benzamide] | 244 to 248 °C (dec.) | 5.2 | –
O=C1NCCn2c(C34CC5CC(CC(C5)C3)C4)nc3cccc1c32 [Example 117, 1-Tricyclo[3.3.1.1]dec-1-yl-8,9-dihydro-7H-2,7,9a-triaza-benzo[cd]azulene-6-one] | 304 to 306 °C | 9.5 | –
O=C1NCCn2c(-c3ccc(CN4CC[S+]([O-])CC4)cc3)nc3cccc1c32 [Example 122, 1-[4-(Oxo-1λ^4-thiomorpholin-4-ylmethyl)-phenyl]-8,9-dihydro-7H-2,7,9a-triaza-benzo[cd]azulen-6-one] | 247 °C (dec.) | 7 | –
O=C1NCCn2c(-c3ccc(OCCN4CCCC4)cc3)nc3cccc1c32 [Example 123, 1-[4-(2-Pyrrolidin-1-yl-ethoxy)-phenyl]-8,9-dihydro-7H-2,7,9a-triaza-benzo[cd]azulen-6-one] | 172 to 175 °C | 9 | –

Source: patent US6548494B1, “Tricyclic inhibitors of poly(ADP-ribose) polymerases” (Agouron Pharmaceuticals, Inc., priority 1999, dated 2003)
